Assay results published in patent US20090104171A1, “Metabolic Enhancement Therapy” (priority 2007, published 2009).

Assays:
[1] = oral supplementation, patient groups; cited from earlier work
NMDA glycine site = conditions: in vivo; cited from earlier work
[2] = cited from earlier work
[3] = Case study Example 2: person with moderately functioning autism; format: in vivo, human; conditions: autistic person; for alleviation of behavioral symptoms: complete formulation
Text: Person diagnosed with moderately functioning autism. Subject's behaviors were noteworthy for acute social withdrawal, pronounced language deficit, obsessive compulsive behaviors, acute anxiety attacks, aggression, hyperactivity, loss of concentration, fear and panic disorder, hyperactivity, depression, sleep deficit and acoustic hypersensitivity. Subject experienced loss of appetite and was underweight, although growth and sexual development was not stunted. […]

[4] = test system: yeasts and yeast-like fungi; conditions: cited from earlier work
[5] = test system: bacteria, protozoa or viruses; conditions: cited from earlier work
[6] = oral; cited from earlier work
[7] = Case study Example 3: person with schizophrenia; conditions: for relief of symptoms (anxiety, obsessive compulsive behavior, psychosis): schizophrenic, formulation given while remaining on clozapine and lithium
Text: Person diagnosed with schizophrenia. Hospitalized several times suffering from acute psychotic attack with hallucinations and paranoia. Treated with many typical and atypical antipsychotic drugs. […] Over the years, several diagnoses were given, including bipolar disorder, obsessive-compulsive disorder, affective disorder, and combinations thereof. Medications have included lithium, olanzapine, prozac, and several sleep medications. […] Patient went through years of treatment programs and weekly psychiatric sessions. Although they managed (with extreme difficulty) to obtain BA and MA degrees, paranoia and anxiety prevented them from working. Recent history. Patient has been on an atypical antipsychotic (clozapine) and high doses of lithium carbonate for the past 2 years. […] Patient started on Metabolic Enhancement Therapy with the disclosed formulation, while remaining on clozapine and lithium.

[8] = Case study Example 4: person with acute anxiety disorder and depression; conditions: 2 years of treatment
[9] = in vivo; cited from earlier work

With N[C@@H](Cc1c[nH]c2ccc(O)cc12)C(=O)O [5-hydroxytryptophan] as the compound, how does the “effect on depression in clinical trials” value [1] read?
The value was “only minor signs of efficacy”.

Which “extinction of conditioned fear” value (NMDA glycine site) does the source give for N[C@@H]1CONC1=O [D-cycloserine] here?
Its value is “augment the extinction of conditioned fear”.

For O=C(O)c1cccnc1 [Niacin], which “effects at pharmacologic doses” value ([2]; 2-4 g/day) is on record?
Its value is “vasodilation (flushing reaction), a marked decrease in circulation fatty acids, cholesterol and lipoproteins, and an elevation of serum glucose and uric acid”.

And the “dose without reported toxicity” value ([2]; in vivo)?
Its value is “up to 50 mg/day”.

Which “control of chronic intestinal yeast infections” value [3] does the source give for C[C@@H]1[C@H](O)[C@@H](C)/C=C/C=C/CC/C=C/C=C/C=C/C=C/C(O[C@H]2O[C@H](C)[C@@H](O)[C@H](N)[C@@H]2O)CC2O[C@](O)(CC(O)C(O)CCC(O)CC(O)CC(O)CC(=O)O[C@H]1C)CC(O)C2C(=O)O (some centres unmarked) [Nystatin] here?
Its value is “effectively controlled yeast infections”.

And the antifungal activity [4]?
The antifungal activity was “both fungistatic and fungicidal”.

What about the “activity against bacteria, protozoa or viruses” value [5] of the same compound?
Its value is “no activity”.

What about the gastrointestinal absorption [6] of the same compound?
Its gastrointestinal absorption is “insignificant”.

And the “tolerability / toxicity in words” value ([2]; in vivo)?
Its value is “generally well tolerated by all age groups”.

Which “side effects induced by medication” value ([7]; in vivo) does the source give for CNCCC(Oc1ccc(C(F)(F)F)cc1)c1ccccc1 (centres unmarked) [Prozac] here?
The value was “induce tremors, rigidity, weight gain and diabetes”.

What about the “relief of symptoms (anxiety, obsessive compulsive behavior, psychosis)” value [7] of the same compound?
Its value is “None provided relief of symptoms”.

And the side effects [8]?
The side effects was “negative side effects”.

With C[S+](CC[C@H](N)C(=O)O)C[C@H]1O[C@@H](n2cnc3c(N)ncnc32)[C@H](O)[C@@H]1O (some centres unmarked) [S-adenosyl methionine (SAMe), S-adenosyl methionine] as the compound, how does the “effect on depression in clinical trials” value [1] read?
Its value is “effective treatment for depression”.

For Cc1ncc(C[n+]2csc(CCO)c2C)c(N)n1 [Vitamin B1, Thiamine], which “tolerability / toxicity in words” value ([2]; in vivo) is on record?
Its value is “toxicities are very rare”.

For CC(=O)O[C@H](CC(=O)[O-])C[N+](C)(C)C [acetyl-L-carnitine], which “effect on depression in clinical trials” value [1] is on record?
The value was “effective in relieving depression”.

Which “effect on depression in clinical trials” value [1] does the source give for NCC(=O)O [glycine] here?
The value was “useful in the treatment of certain forms of bipolar depression”.

With O=C([O-])[O-].[Li+].[Li+] [lithium carbonate] as the compound, how does the “relief of symptoms (anxiety, obsessive compulsive behavior, psychosis)” value [7] read?
The value was “Obsessive-compulsive behavior progressively deteriorated”.

Which “increase of delivery of lithium to brain by complexing with orotate” value [9] does the source give for O=C([O-])c1cc(=O)[nH]c(=O)[nH]1.[Li+] [lithium orotate] here?
The value was “over 100 fold”.

For [Li] [lithium], which “side effects induced by medication” value ([7]; prior medications) is on record?
The value was “induce tremors, rigidity, weight gain and diabetes”.

Which “side effects induced by medication” value ([7]; in vivo) does the source give for Cc1cc2c(s1)Nc1ccccc1N=C2N1CCN(C)CC1 [olanzapine] here?
Its value is “induce tremors, rigidity, weight gain and diabetes”.

With Cc1ncc(CO)c(CO)c1O [vitamin B6, pyridoxine] as the compound, how does the “effect on depression in clinical trials” value [1] read?
The value was “helps alleviate depression associated with premenstrual syndrome”.

And the “dose reported to induce peripheral neuropathy” value ([2]; in vivo)?
Its value is “exceed 2,000 mg/day”.

With amoxtatine as the compound, how does the “alleviation of behavioral symptoms” value [3] read?
The value was “proved totally ineffective”.

With secretin as the compound, how does the “alleviation of behavioral symptoms” value [3] read?
The value was “proved totally ineffective”.

For vitamin B12, which “effect on depression in clinical trials” value [1] is on record?
The value was “responsive to B12 supplementation”.

Which “dose without reported toxicity” value ([2]; in vivo) does the source give for vitamin E here?
The value was “up to 800 mg/day”.
